Holding throughout (type): physicochemical
Assay [1] in a line: X-ray-induced release of coumarin reporter 7-Deacca from Compounds 1-9 in phosphate buffer (UPLC-MS). The settings on record: for release efficiency in KNO3 solution relative to control: 10 mM KNO3 added; for reactivity to radiation reduction: ortho-/para-substituted esters versus meta-substituted ones (Compounds 2, 5, 8); for release efficiency (in words): NAP esters. Here is the method: (§1) Pretreated solution (approx. 1-2 mL) was sealed in glass vials with rubber stoppers and metal caps. All tubular radiation experiments were pretreated using the freeze-thaw method to remove dissolved oxygen from the solution. The solution was frozen, then vacuum was applied for several minutes until thawed to room temperature.
X-ray irradiation was performed using an X-ray generator (RS2000 Pro 225, 225 kV, 17.7 mA; Rad Source Technologies, Inc).
(§2) Tubes were irradiated with X-rays, with a total dose of 0-60 Gy, at a rate of 2 Gy/min. Cells were irradiated with X-rays at different doses at a rate of 2 Gy/min.
• 1. Standard preparation and calibration curves. The standard (coumarin, MeRho or MMAE) was dissolved in DMSO solution to make a 10 mM stock solution. The stock was diluted with deionized water to obtain solutions of suitable concentration gradients. These standard solutions were analyzed by UPLC-MS to generate calibration curves for the respective standard compounds. The peak areas of the target compounds were within the linear range of the curves. The relative standard deviation for duplicate injections of each standard solution was less than 5.0%. • 2. Analysis and calculation. After different treatments, the reaction mixtures were analyzed by ultra-performance liquid chromatography-mass spectrometry. The amount of cargo was calculated as equivalents of their respective external standard.
(§3) As a representative example, the detailed procedure for X-ray-induced reduction of Compound 1 is described below. A stock solution of Compound 1 (10 mM in DMSO) was diluted in PB (0.02 M, pH 7.4) to a final concentration of 10 µM. Solutions were deoxygenated using the aforementioned deoxygenation step prior to X-ray irradiation from 0 to 60 Gy. Reaction mixtures were analyzed using UPLC and a fluorescence spectrometer, and amount of product release was quantified via standard curves.
The elution program for Compounds 1-9 and NAPC-MeRho was Method a: H2O + 5% ACN (0 min)-95% H2O + 5% ACN (0.2 min)-5% H2O + 95% ACN (2.8 min)-5% H2O + 95% ACN (2.9 min)-95% H2O + 5% ACN (3.0 min)-95% H2O + 5% ACN (4.0 min). Injection volume: 10 µL.
10 mM KNO3 was added to the radiation system of Compound 1 (10 µM, in PB, pH 7.4) Reactivity test (10 µM, 0.1% DMSO): Determination of 7-Deacca release in PB (20 mM, pH 7.4) after deoxygenation and 60 Gy X-ray irradiation. Encouragingly, UPLC-MS detected coumarin release (FIG. 32), with a release efficiency of 33.5 ± 9.1% (FIG. 4), resulting in 55.8 nM/Gy.
7-Deacca was designed to be protected by a series of molecules Compounds 2-9 with pyridyl, quinolinyl, and N-methylpyridyl groups. Stock solutions of Compounds 2-9 (10 mM in DMSO) were diluted in PB (10 µM, 0.1% DMSO), then irradiated with 60 Gy X-rays, and analyzed by UPLC-MS to determine the yield of free 7-Deacca (FIG. 35).
10 mM HCOONa or KNO3 was added to the radiation system of Compound 7 (10 µM, in PB, pH 7.4). […] It can be explained that radicalized HCOONa in water reacts with ·OH and hydrogen radicals (·H) to generate carboxylate radicals […], which is another reducing agent with a standard electrode potential of -1.90 V, which may also be a possible explanation for the difference in its radiation reduction efficiency. Compared to the quinolinyl moiety with higher electron density (lower reduction potential), the positive charge on the pyridyl moiety with lower electron density (higher reduction potential) has higher affinity for the negatively charged e^-aq, resulting in the highest radiation reduction efficiency among them for the pyridyl moiety.

The nature of assay [2]: X-ray-induced AMC release from Compound 10 in PB (UPLC). The settings on record: 10 µM, 0.02 M PB pH 7.4, 0-60 Gy. On the procedure: as §1, §2, §3
(§4) Method B was used for elution of Compound 10, mixtures of Compound 7 with other RPGs, and mixtures of Compound 10 with other rpg: 95% H2O + 5% ACN (0 min)-95% H2O + 5% ACN (0.2 min)-70% H2O + 30% ACN (3.0 min)-70% H2O + 30% ACN (3.6 min)-95% H2O + 5% ACN (3.7 min)-95% H2O + 5% ACN (5.0 min). Injection volume: 10 µL.
The inventors synthesized Compound 10 (NAPC-AMC) containing NAP-protected 7-amino-4-methylcoumarin (AMC). […]

Assay [3] in a line: Competition reaction of Compound 10 with prior-art RPGs (Compounds 11, 12, 13) under 60 Gy X-ray. The settings on record: each component 10 µM in PB pH 7.4, deoxygenated, versus Compounds 11, 12, 13. Here is the method:
as §4
The inventors mixed the reported RPGs with Compound 10, providing solutions of [10+11], [10+12], [10+13], respectively (each component: 10 µM in PB, pH 7.4). The solutions were deoxygenated and irradiated with 60 Gy X-rays, and their release efficiencies were analyzed by UPLC-MS (FIG. 11) and summarized in FIG. 12. The lower part of the bars and the upper part of the bars represent the activation ratio of Compound 10 and each competing component in the irradiation system, respectively.

Setting [4] is: 10 µM, 20 Gy irradiation (control conditions).

SMILES strings stand for the structures.

Regarding `CCN(CC)c1ccc2cc(C(=O)OCc3ccncc3)c(=O)oc2c1` [Compound 1, Pyridin-4-ylmethyl-7-(diethylamino)-2-oxo-2H-chromene-3-carboxylate], the “release efficiency (coumarin / 7-Deacca release)” value in assay [1] (10 µM, 0.1% DMSO, PB 20 mM pH 7.4, deoxygenated, 60 Gy X-ray) came out at 33.5 ± 9.1%. Further, the coumarin release efficiency is 27.3% in assay [1] (10 µM, 20 Gy + 10 mM HCO2Na); 1.3% in assay [1] (10 µM, 20 Gy + 10 mM KNO3); 16.7% in assay [1] (setting [4]). In addition, the “release efficiency in KNO3 solution relative to control” value in assay [1] (10 µM in PB pH 7.4) is listed as “significantly reduced”. Also, in assay [1] (from release efficiency at 60 Gy, 10 µM in PB pH 7.4), the “release per radiation dose” value is 55.8 nM/Gy. Further, the “reactivity to radiation reduction” value in assay [1] (60 Gy X-ray) is “more reactive”.

In the case of `CCN(CC)c1ccc2cc(C(=O)OCc3ccccn3)c(=O)oc2c1` [Compound 3, Pyridin-2-ylmethyl-7-(diethylamino)-2-oxo-2H-chromene-3-carboxylate], in assay [1] (60 Gy X-ray), the “reactivity to radiation reduction” value was “more reactive”.

With `CCN(CC)c1ccc2cc(C(=O)OCc3ccnc4ccccc34)c(=O)oc2c1` [Compound 4, Quinolin-4-ylmethyl-7-(diethylamino)-2-oxo-2H-chromene-3-carboxylate], the “reactivity to radiation reduction” value in assay [1] (60 Gy X-ray) is given as “more reactive”.

In the case of `CCN(CC)c1ccc2cc(C(=O)OCc3ccc4ccccc4n3)c(=O)oc2c1` [Compound 6, Quinolin-2-ylmethyl-7-(diethylamino)-2-oxo-2H-chromene-3-carboxylate], the “reactivity to radiation reduction” value in assay [1] (60 Gy X-ray) was “more reactive”.

Regarding `CCN(CC)c1ccc2cc(C(=O)OCc3cc[n+](C)cc3)c(=O)oc2c1` [Compound 7, (4-((7-(diethylamino)-2-oxo-2H-chromene-3-carbonyl)oxy)methyl)-1-methylpyridin-1-ium], the coumarin release efficiency in assay [1] (10 µM, 20 Gy + 10 mM HCO2Na) is recorded as 53.8%; in assay [1] (10 µM, 20 Gy + 10 mM KNO3) it was 0.0%; in assay [1] (setting [4]), 27.6%. In assay [1] (10 mM HCOONa added, 10 µM in PB pH 7.4), the “reduction yield on addition of HCOONa” value is “approximately doubled”. Further, the “release efficiency in KNO3 solution relative to control” value in assay [1] (10 µM in PB pH 7.4) is “significantly reduced”. Further, the “release efficiency (in words)” value in assay [1] (60 Gy X-ray) is reported as “high release efficiencies”. Moreover, the “G-value (release of the reporter molecule)” value in assay [1] (X-ray dose gradient 0 to 60 Gy, UPLC) came to 140 nM/Gy. For the same molecule, the “reactivity to radiation reduction” value in assay [1] (60 Gy X-ray) is on record as “more reactive”.

On to `CCN(CC)c1ccc2cc(C(=O)OCc3cccc[n+]3C)c(=O)oc2c1` [Compound 9, (2-((7-(diethylamino)-2-oxo-2H-chromene-3-carbonyl)oxy)methyl)-1-methylpyridin-1-ium], for which, in assay [1] (60 Gy X-ray), the “release efficiency (in words)” value is on record as “high release efficiencies” and the “reactivity to radiation reduction” value is given as “more reactive”.

As for `Cc1cc(=O)oc2cc(NC(=O)OCc3cc[n+](C)cc3)ccc12` [Compound 10], in assay [2], the “G (AMC release versus radiation dose)” value stood at 145 nM/Gy. In addition, the “additional activation versus previously reported structures in competition” value in assay [3] is 20-40%.

The record behind these values is patent publication EP4733301A1 (priority 2023, dated 2025).
